The target in the experiment is T1, human SARM1(50-724) (Homo sapiens, UniProt Q6SZW1).
T1 construct: 40 nM human SARM1(50-724)
T1 sequence (Q6SZW1 50-724): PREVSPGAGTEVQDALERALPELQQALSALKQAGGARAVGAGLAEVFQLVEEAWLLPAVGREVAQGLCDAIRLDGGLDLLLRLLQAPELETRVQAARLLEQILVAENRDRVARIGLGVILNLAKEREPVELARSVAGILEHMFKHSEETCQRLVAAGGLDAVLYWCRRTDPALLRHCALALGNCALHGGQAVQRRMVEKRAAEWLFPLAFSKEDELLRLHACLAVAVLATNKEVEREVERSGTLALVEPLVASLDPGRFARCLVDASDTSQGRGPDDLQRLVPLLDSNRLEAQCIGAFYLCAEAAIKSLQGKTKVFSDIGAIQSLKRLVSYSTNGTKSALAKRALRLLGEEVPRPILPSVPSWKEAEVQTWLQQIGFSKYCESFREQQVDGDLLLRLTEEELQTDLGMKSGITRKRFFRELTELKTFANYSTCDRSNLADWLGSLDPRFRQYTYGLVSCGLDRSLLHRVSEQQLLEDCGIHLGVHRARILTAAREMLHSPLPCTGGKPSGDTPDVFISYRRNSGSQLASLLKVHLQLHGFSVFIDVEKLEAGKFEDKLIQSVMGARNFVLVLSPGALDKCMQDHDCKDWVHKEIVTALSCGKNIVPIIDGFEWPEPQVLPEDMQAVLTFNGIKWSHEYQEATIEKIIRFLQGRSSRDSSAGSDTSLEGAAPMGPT
Nature of the experiment: SARM1 NADase biochemical assay (HPLC peak areas of NAD and NAM). As to conditions: for pIC50: dose-response, 1:3 serial dilution from 100 μM, 40 nM SARM1, 0.3 mM NMN, 20 μM NAD, 60 min rt. The method, then: The reaction was incubated at room temperature for 60 minutes and quenched with 20 μL of 0.4% formic acid. […] Total run time for each sample was 4 minutes. […] Samples were run at a flow rate of 0.8 mL/min at 55° C. Peak areas of NAD and NAM were determined using OpenLAB CDS (Chem Station edition) software. For dose-response, the compound was diluted serially 1:3 in DMSO and added to the reaction starting at a final compound concentration of 100 μM in 1% DMSO.

[1] abbreviates: 50 μM compound, NAD peak area, read-out: Avg NAD % inhibition at 50 μM.
[2] abbreviates: 50 μM compound, NAM peak area, read-out: Avg NAM % inhibition at 50 μM.
The mark [3] stands for this setting: read-out: Avg NAD % inhibition at 50 μM.
Setting [4] is: read-out: Avg NAM % inhibition at 50 μM.

pIC50: −log10 of the molar value. Read-outs that look alike come from different tables or passages of the source. Bounds are passed on as bounds.

On to `O=C(Nc1ccn(Cc2ccncc2)n1)c1ccccc1C(F)(F)F` [Example 56, N-(1-(Pyridin-4-ylmethyl)-1H-pyrazol-3-yl)-2-(trifluoromethyl)benzamide], for which the inhibition at 50 µM was in the range of 0 to 50% under setting [1] and 0 to 50% under setting [2].
On to “(S)-4-(1-(1-(2,2,2-Trifluoroethyl)-1H-pyrazol-3-yl)ethyl)pyridine and (R)-4-(1-(1-(2,2,2-Trifluoroethyl)-1H-pyrazol-3-yl)ethyl)pyridine [Example 13b]”, for which, where the note is “50 μM compound, NAD peak area”, the “Avg NAD % inhibition at 50 μM” value is recorded as “** (51-100%)”. In addition, the “Avg NAM % inhibition at 50 μM” value (50 μM compound, NAM peak area) is listed as “** (51-100%)”.
In turn, `N#CCc1ccn(Cc2ccncc2)n1` [Example 30, 2-(1-(Pyridin-4-ylmethyl)-1H-pyrazol-3-yl)acetonitrile] gave a pIC50 of 5.00 to 6.00.
Consider `O=S(=O)(Nc1ccn(Cc2ccncc2)n1)c1ccccc1` [Example 70, N-(1-(Pyridin-4-ylmethyl)-1H-pyrazol-3-yl)benzenesulfonamide], for which the inhibition at 50 µM runs as follows: under setting [3], 51 to 100%; under setting [4], 51 to 100%.
With `O=C(Nc1ccn(Cc2ccncc2)n1)c1cccc(F)c1` [Example 59, 3-Fluoro-N-(1-(pyridin-4-ylmethyl)-1H-pyrazol-3-yl)benzamide], the inhibition at 50 µM under setting [1] lay in the range of 0 to 50% and the inhibition at 50 µM under setting [2] is 0 to 50%.
`CCC(c1ccncc1)n1ccc(NCC(F)(F)F)n1` (racemic) [Example 99, (rac)-1-(1-(Pyridin-4-yl)propyl)-N-(2,2,2-trifluoroethyl)-1H-pyrazol-3-amine] gave a negative logarithm of the IC50 (pIC50) of 4.00 to 5.00.
The molecule `CC(c1ccncc1)n1ccc(NC(C)C(F)(F)F)n1` (racemic) [Example 100, (rac)-1-(1-(Pyridin-4-yl)ethyl)-N-(1,1,1-trifluoropropan-2-yl)-1H-pyrazol-3-amine] had a pIC50 of 5.00 to 6.00.
Regarding `COc1ccc(C(=O)Nc2ccn(Cc3ccncc3)n2)s1` [Example 64, 5-Methoxy-N-(1-(pyridin-4-ylmethyl)-1H-pyrazol-3-yl)thiophene-2-carboxamide], the inhibition at 50 µM under setting [1] lay within 0 to 50% and the inhibition at 50 µM under setting [2] was 0 to 50%.
In turn, `N#CCNc1ccn(Cc2ccncc2)n1` [Example 17, 2-((1-(Pyridin-4-ylmethyl)-1H-pyrazol-3-yl)amino)acetonitrile] showed a pIC50 of 5.00 to 6.00.
In turn, `[2H]C([2H])([2H])C(c1ccncc1)c1ccn(CC(F)F)n1` (racemic) [Example 25, (rac)-4-(1-(1-(2,2-Difluoroethyl)-1H-pyrazol-3-yl)ethyl-2,2,2-d3)pyridine] had a pIC50 of 5.00 to 6.00.
Regarding `FC(F)(F)Cc1ccn(Cc2ccncc2)n1` [Example 29, 4-((3-(2,2,2-Trifluoroethyl)-1H-pyrazol-1-yl)methyl)pyridine], the negative-log IC50 (pIC50) was more than 6.00.
For `CC(c1ccncc1)c1nn(CC(F)(F)F)cc1F` (racemic) [Example 22, (rac)-4-(1-(4-Fluoro-1-(2,2,2-trifluoroethyl)-1H-pyrazol-3-yl)ethyl)pyridine], the negative-log IC50 (pIC50) was 5.00 to 6.00.
`COc1ccc(C(=O)Nc2ccn(Cc3ccncc3)n2)cc1OC` [Example 41, 3,4-Dimethoxy-N-(1-(pyridin-4-ylmethyl)-1H-pyrazol-3-yl)benzamide]: the inhibition at 50 µM reads like this: under setting [3], 0 to 50%; under setting [4], 0 to 50%.
In the case of `FC(F)Cc1ccn(Cc2ccncc2)n1` [Example 102, 4-{[3-(2,2-Difluoroethyl)-1H-pyrazol-1-yl]methyl}pyridine], the negative logarithm of the IC50 (pIC50) is 5.00 to 6.00.
Molecule `FC(F)(F)C(CNc1ccn(Cc2ccncc2)n1)C(F)(F)F` [Example 16, 1-(Pyridin-4-ylmethyl)-N-(3,3,3-trifluoro-2-(trifluoromethyl)propyl)-1H-pyrazol-3-amine] showed a negative-log IC50 (pIC50) of 5.00 to 6.00.
For `O=C(Nc1ccn(Cc2ccncc2)n1)c1cc(Br)cs1` [Example 65, 4-Bromo-N-(1-(pyridin-4-ylmethyl)-1H-pyrazol-3-yl)thiophene-2-carboxamide], the pIC50 was 4.00 to 5.00. Under setting [1], the inhibition at 50 µM was 51 to 100%. The inhibition at 50 µM under setting [2] fell in the range of 51 to 100%.
`CC(c1ccncc1)n1ccc(NCC(F)F)n1` (racemic) [Example 101, (rac)-N-(2,2-Difluoroethyl)-1-(1-(pyridin-4-yl)ethyl)-1H-pyrazol-3-amine]: the negative-log IC50 (pIC50) was more than 6.00.
Still for that read-out and setting: the figure for `c1cc(Cn2ccc(Nc3nccs3)n2)ccn1` [Example 4, N-(1-(Pyridin-4-ylmethyl)-1H-pyrazol-3-yl)thiazol-2-amine] is 5.00 to 6.00.
For the molecule `COc1ccc(C(=O)Nc2ccn(Cc3ccncc3)n2)cc1` [Example 42, 4-Methoxy-N-(1-(pyridin-4-ylmethyl)-1H-pyrazol-3-yl)benzamide], the inhibition at 50 µM under setting [1] fell in the range of 0 to 50% and the inhibition at 50 µM under setting [2] fell in the range of 0 to 50%.
For the molecule `Fc1cn(Cc2ccncc2)nc1CC(F)(F)F` (racemic) [Example 104, 4-{[4-Fluoro-3-(2,2,2-trifluoroethyl)-1H-pyrazol-1-yl]methyl}pyridine], the pIC50 was 5.00 to 6.00.
As to `O=C(Nc1ccn(Cc2ccncc2)n1)c1ccc(Cl)cc1` [Example 55, 4-Chloro-N-(1-(pyridin-4-ylmethyl)-1H-pyrazol-3-yl)benzamide], the inhibition at 50 µM reads like this: under setting [3], 51 to 100%; under setting [4], 51 to 100%.
The molecule “(R)-4-(1-(1-(2,2-Difluoroethyl)-1H-pyrazol-3-yl)ethyl)pyridine and (S)-4-(1-(1-(2,2-Difluoroethyl)-1H-pyrazol-3-yl)ethyl)pyridine [Example 110]” had a negative logarithm of the IC50 (pIC50) of 4.00 to 5.00.
Turning to “(R)-4-(1-(1-(2,2-Difluoroethyl)-1H-pyrazol-3-yl)ethyl-2,2,2-d3)pyridine and (S)-4-(1-(1-(2,2-Difluoroethyl)-1H-pyrazol-3-yl)ethyl-2,2,2-d3)pyridine [Example 114a]”, the pIC50 is 5.00 to 6.00.
On to `Cc1cnccc1Cn1ccc(NCC(F)(F)F)n1` [Example 84, 1-((3-Methylpyridin-4-yl)methyl)-N-(2,2,2-trifluoroethyl)-1H-pyrazol-3-amine], for which the negative logarithm of the IC50 (pIC50) was 4.00 to 5.00.
With `O=C(Nc1ccn(Cc2ccncc2)n1)c1ccccc1O` [Example 47, 2-Hydroxy-N-(1-(pyridin-4-ylmethyl)-1H-pyrazol-3-yl)benzamide], the inhibition at 50 µM is, setting by setting: under setting [1], 0 to 50%; under setting [2], 0 to 50%.
In turn, `Cc1cnccc1Cc1ccn(CC(F)(F)F)n1` [Example 23, 3-Methyl-4-((1-(2,2,2-trifluoroethyl)-1H-pyrazol-3-yl)methyl)pyridine] had a negative logarithm of the IC50 (pIC50) of 5.00 to 6.00.
In turn, `O=C(Nc1ccn(Cc2ccncc2)n1)c1cccc(Cl)c1` [Example 54, 3-Chloro-N-(1-(pyridin-4-ylmethyl)-1H-pyrazol-3-yl)benzamide] had a pIC50 of 4.00 to 5.00.
Take `O=C(CCc1ccccc1)Nc1ccn(Cc2ccncc2)n1` [Example 34, 3-Phenyl-N-(1-(pyridin-4-ylmethyl)-1H-pyrazol-3-yl)propanamide]: the inhibition at 50 µM under setting [1] was in the range of 0 to 50% and the inhibition at 50 µM under setting [2] lay within 0 to 50%.
Turning to `O=C(Nc1ccn(Cc2ccncc2)n1)c1cccnc1` [Example 62, N-(1-(Pyridin-4-ylmethyl)-1H-pyrazol-3-yl)nicotinamide], the inhibition at 50 µM under setting [3] fell in the range of 0 to 50% and the inhibition at 50 µM under setting [4] was in the range of 0 to 50%.
On to `CC(c1ccncc1)c1ccn(CC#N)n1` (single isomer, unassigned) [Example 12b], for which the pIC50 is more than 6.00.
For `O=C(Nc1ccn(Cc2ccncc2)n1)c1ccccc1` [Example 69, N-(1-(Pyridin-4-ylmethyl)-1H-pyrazol-3-yl)benzamide], the inhibition at 50 µM under setting [3] lay in the range of 51 to 100% and the inhibition at 50 µM under setting [4] was 51 to 100%.
With `CC(c1ccncc1)n1ccc(CC(F)F)n1` (racemic) [Example 107, (rac)-4-{1-[3-(2,2-Difluoroethyl)-1H-pyrazol-1-yl]ethyl}pyridine], the pIC50 is 5.00 to 6.00.
`Cc1cccc(C(=O)Nc2ccn(Cc3ccncc3)n2)c1` [Example 49, 3-Methyl-N-(1-(pyridin-4-ylmethyl)-1H-pyrazol-3-yl)benzamide]: the inhibition at 50 µM is 0 to 50% under setting [1] and 0 to 50% under setting [2].
Take `COc1ccc(S(=O)(=O)N(C)c2ccn(Cc3ccncc3)n2)cc1` [Example 75, 4-Methoxy-N-methyl-N-(1-(pyridin-4-ylmethyl)-1H-pyrazol-3-yl)benzenesulfonamide]: the inhibition at 50 µM is 0 to 50% under setting [3] and 0 to 50% under setting [4].
Molecule `CC(c1ccncc1)n1ccc(NCC#N)n1` (racemic) [Example 5, (rac)-2-((1-(1-(Pyridin-4-yl)ethyl)-1H-pyrazol-3-yl)amino)acetonitrile] had a negative-log IC50 (pIC50) of 5.00 to 6.00.

The record behind these values is patent US11945796B2, “Substituted pyridine derivatives as SARM1 inhibitors” (Nura Bio, Inc., priority 2020, dated 2024).
